Test results: patent publication US20230109801A1 (Blue Oak Pharmaceuticals, Inc., priority 2020, published 2023)
Structures can show the parent of a compound that is named as a salt.

System: mice
Experiment: SmartCube in vivo neuropharmacological behavioral assay
Conditions: for minimal effective dose: Mus musculus, ip, read-out: MED (minimal effective dose); for AD: antidepressant, percent probability / AG: analgesic, percent probability / AP: antipsychotic, percent probability / AX: anxiolytic, percent probability / CE: cognitive enhancer, percent probability / HA: hallucinogenic, percent probability / MS: mood stabilizer, percent probability / PS, percent probability / SD: sedative hypnotic, percent probability / SE: side effects, percent probability / UN: uncharacterized CNS activity, percent probability / XG: anxiogenic, percent probability: SmartCube, i.p. 15 min before test, at the MED
Experimental: The compounds were evaluated for their CNS related properties (e.g., the treatment, prevention or diagnosis of CNS or CNS-related disorders and/or amelioration of symptoms) using neuropharmacological screening methods described in S. L. Roberts et al., Front. Neurosci. 2011, 5:103 (hereinafter referred to as “Roberts,” the contents of which are incorporated herein by reference in their entirety).
According to Roberts, intact systems are useful in detecting improvement in disease-relevant endpoints, because psychiatric diseases generally result from disorders of cell-cell communication or circuitry. The endpoints are typically behavioral in nature, often requiring human observation and interpretation. In order to test multiple compounds for behavioral effects relevant to neurological and psychiatric diseases and disorders, PsychoGenics, Inc. (Paramus, N.J. “PGI”) developed SmartCube®, an automated system in which behaviors of compound-treated mice are captured by digital video and analyzed with computer algorithms to facilitate testing of multiple compounds for behavioral effects relevant to psychiatric disease. (D. Brunner et al., Drug Discov. Today 2002, 7:S107-S112; Alexandrov et al., Eur. J. Pharmacol. 2015, 753:127-134; the contents of each of which are incorporated herein by reference in their entirety).
The SmartCube® system is described in Example 2.2 of U.S. Pat. No. 9,758,529 and Example 289 of WIPO Publication No. WO2018/023070, the contents of each of which are incorporated herein by reference in their entirety.
According to the present disclosure, compounds identified may be evaluated using the SmartCube® system. The results of such analysis correlate certain patterns or combinations of behaviors to CNS effects along a percent probability scale of 0-100 where zero (O) reflects the limit of quantitation (LOQ).
The compounds of the present disclosure were evaluated for their CNS related properties (e.g., the treatment, prevention or diagnosis of CNS or CNS-related disorders and/or amelioration of symptoms) using neuropharmacological screening methods described in S. L. Roberts et al., Front. Neurosci. 2011, 5:103 (hereinafter referred to as “Roberts,” the contents of which are incorporated herein by reference in their entirety).
The SmartCube® system described herein was utilized to compare the behavioral signature of a test compound to a database of behavioral signatures obtained using a large set of diverse reference compounds (including but not limited to antipsychotics, anxiolytics, antidepressants and bipolar disorder medicine), thereby predicting the neuropharmacological effects of a test compound by similarity to major classes of compounds. It produces an activity signature indicating the probability that the activity of the test compound at the administered dose matches a given class of neuropharmacological agents. The test compound is simultaneously compared against multiple classes of agents; thus, a separate probability is generated for each behavioral effect measured (such as but not limited to anxiolytic activity and analgesic activity).
The compounds of the present disclosure were dissolved in a mixture of Pharmasolve™ (N-methyl-2-pyrrolidone (NMP)) and were injected i.p. 15 min. before the behavioral test. For each compound, injections were administered at different dose levels (e.g., 0.3, 1, 3, 10 and 30 mg per kg (mpk)). A compound's minimal effective dose (MED; see Table 3) is a measure of the compound's potency. The MED was defined as the dose (in mpk) having 50% or more total activity in SmartCube®. For each behavioral effect measured, results at the MED are presented. CNS activities of the compounds were recorded (see Table 2). In Table 1, a key to the percent probabilities (probability×100) for each behavioral effect (“X”) are defined provided, where LOQ is the limit of quantification.

[1] = dose having 50% or more total activity in SmartCube, i.p.

| Compound | minimal effective dose [1] [mg/kg] | AD: antidepressant, percent probability | AG: analgesic, percent probability | AP: antipsychotic, percent probability | AX: anxiolytic, percent probability | CE: cognitive enhancer, percent probability | HA: hallucinogenic, percent probability | MS: mood stabilizer, percent probability | PS, percent probability | SD: sedative hypnotic, percent probability | SE: side effects, percent probability | UN: uncharacterized CNS activity, percent probability | XG: anxiogenic, percent probability | MED (minimal effective dose) [1] |
| --- | --- | --- | --- | --- | --- | --- | --- | --- | --- | --- | --- | --- | --- | --- |
| COCC(C)N1C2CCC1c1ccccc12 (stereo not shown) [Compound 46, 11-(1-Methoxypropan-2-yl)-11-azatricyclo[6.2.1.0^2,7]undeca-2,4,6-triene hydrochloride] | > 30 | + (LOQ ≤ X < 5%) | ++ (5% ≤ X < 25%) | + (LOQ ≤ X < 5%) | + (LOQ ≤ X < 5%) | + (LOQ ≤ X < 5%) | + (LOQ ≤ X < 5%) | + (LOQ ≤ X < 5%) | + (LOQ ≤ X < 5%) | + (LOQ ≤ X < 5%) | + (LOQ ≤ X < 5%) | + (LOQ ≤ X < 5%) | + (LOQ ≤ X < 5%) |  |
| 11-[(2E)-Pent-2-en-1-yl]-11-azatricyclo[6.2.1.0^2,7]undeca-2,4,6,9-tetraene hydrochloride [Compound 9] |  | + (LOQ ≤ X < 5%) | + (LOQ ≤ X < 5%) | + (LOQ ≤ X < 5%) | + (LOQ ≤ X < 5%) | + (LOQ ≤ X < 5%) | + (LOQ ≤ X < 5%) | + (LOQ ≤ X < 5%) | + (LOQ ≤ X < 5%) | + (LOQ ≤ X < 5%) | + (LOQ ≤ X < 5%) | + (LOQ ≤ X < 5%) | + (LOQ ≤ X < 5%) | + (30 mg/kg < +) |
| CC1=CC2c3ccccc3C1N2C(C)C (stereo not shown) [Compound 62, 9-Methyl-11-(propan-2-yl)-11-azatricyclo[6.2.1.0^2,7]undeca-2,4,6,9-tetraene hydrochloride] | 1 to 10 | ++ (5% ≤ X < 25%) | ++ (5% ≤ X < 25%) | + (LOQ ≤ X < 5%) | ++ (5% ≤ X < 25%) | + (LOQ ≤ X < 5%) | + (LOQ ≤ X < 5%) | + (LOQ ≤ X < 5%) | + (LOQ ≤ X < 5%) | + (LOQ ≤ X < 5%) | + (LOQ ≤ X < 5%) | ++ (5% ≤ X < 25%) | + (LOQ ≤ X < 5%) |  |
| COc1cccc2c1C1CCC2N1C(C)C (stereo not shown) [Compound 18, 3-Methoxy-11-(propan-2-yl)-11-azatricyclo[6.2.1.0^2,7]undeca-2,4,6-triene hydrochloride] | 10 to 30 | ++ (5% ≤ X < 25%) | + (LOQ ≤ X < 5%) | + (LOQ ≤ X < 5%) | ++ (5% ≤ X < 25%) | ++ (5% ≤ X < 25%) | + (LOQ ≤ X < 5%) | + (LOQ ≤ X < 5%) | + (LOQ ≤ X < 5%) | ++ (5% ≤ X < 25%) | +++ (25% ≤ X < 50%) | + (LOQ ≤ X < 5%) | + (LOQ ≤ X < 5%) |  |
